Results on eleven compounds are retold here after article PMC12799362, “The effect of dimeric bisbenzimidazoles on the activity of DNA repair enzymes TDP1, TDP2, PARP1 and PARP2” (Vavilov Journal of Genetics and Breeding, 2025).

Assay [1] relates to poly(ADP-ribose) polymerase 2 (PARP2). The assay is described as follows: PARP2 auto-poly(ADP-ribosyl)ation with [32P]-NAD+. The format is biochemical, human. The note with it: compound 500 μM, PARP2 600 nM, 0.6 mM [32P]-NAD+, 5 min, 37 °C; mean ± SD. From the text: (§1) Recombinant human proteins tyrosyl-DNA phosphodiesterase 1 (TDP1) and tyrosyl-DNA phosphodiesterase 2 (TDP2) were expressed in the E. coli system, poly(ADP-ribose) polymerase 1 (PARP1) and poly(ADP-ribose) polymerase 2 (PARP2) were expressed in insect cells using a baculovirus expression system and purified as described in (Sukhanova et al., 2004; Sherstyuk et al., 2019; Dyrkheeva et al., 2020, 2021).
(§2) Determination of PARP1 and PARP2 activity. For determination of PARP1 and PARP2 enzyme activity in the presence and absence of test compounds, radiolabeled [32P]-NAD⁺ was synthesized from α-[32P]-ATP according to the protocol (Sherstyuk et al., 2019). The auto-poly(ADPribosyl) ation reaction was performed in buffer for PARP1: 50 mM Tris-HCl, pH 8.0, 10 mM MgCl2, 150 mM NaCl, and 7 mM β-mercaptoethanol, as well as 2 A260 units/ml activated DNA, 0.3 mM [32P]-NAD⁺ at 37 °C. The reaction was initiated by addition of PARP1 to 200 nM and carried out for 2 min
(§3) The buffer for PARP2 contained: 50 mM Tris-HCl, pH 8.0, 3 mM spermine, 150 mM NaCl, and 7 mM β-mercaptoethanol, 2 A260 units/ml activated DNA, 0.6 mM [32P]-NAD⁺ at 37 °C. The reaction was initiated by addition of PARP2 to 600 nM, and the reaction mixtures were incubated for 5 min. The reaction was stopped by placing 5 μl aliquots on Whatman 1 paper filters impregnated with 5 % trichloroacetic acid (TCA). The filters were washed with 5 % TCA four times and air-dried after removal of TCA with 90 % ethanol. The incorporation of the radioactive label into the reaction product was calculated using a Typhoon FLA 9500 scanner (GE Healthcare, Chicago, Illinois, USA). At least three independent experiments were performed.

Assay [2] deals with T1, tyrosyl-DNA phosphodiesterase 1 (TDP1) (Homo sapiens, UniProt Q9NUW8).
T1 construct: made in house; host or cells: E. coli
Nature of the assay: Real-time fluorescent detection of TDP1 activity (BHQ1 cleavage from 3′-end of single-stranded FAM oligonucleotide). The format is biochemical. The note with it: recombinant TDP1 1.5 nM, 50 nM single-stranded oligonucleotide, 26 °C; mean ± SD, at least three replicates. The method, then:
as §1
Determination of TDP1 activity. The reaction mixture (200 μl) for real-time fluorescent detection of TDP1 enzyme activity (Zakharenko et al., 2015) contained TDP1 reaction buffer (50 mM Tris-HCl, pH 8.0, 50 mM NaCl, and 7 mM β-mercaptoethanol), 50 nM oligonucleotide 5′-FAM-AAC GTC AGG GTC TTC C-BHQ1-3′, the test compound at various concentrations, and TDP1 at a final concentration of 1.5 nM. The reaction mixtures were incubated at a constant temperature of 26 °C in a POLARstar OPTIMA microplate fluorometer (BMG LABTECH, GmbH, Ortenberg, Germany). Fluorescence intensity (Ex485/Em520 nm) was measured every minute for 10 min. Mean values of half-maximal inhibitory concentration (IC50 – the concentration of the compound that inhibited 50 % of enzyme activity compared to the untreated control well containing only enzyme and substrate) were determined using a dose-response curve of the fluorescence signal level versus inhibitor concentration and calculated using MARS Data Analysis 2.0 (BMG LABTECH). Kinetic curves were obtained in at least three independent experiments and statistically processed in OriginPro 8.6.0 (OriginLab, Northampton, Massachusetts, USA).
The third group of compounds includes derivatives of the monomeric compound MB2Py(Ac), which is an isosteric analog of MB3, due to the fact that the pyrrolecarboxamide fragment contained in its structure can act as a hydrogen atom donor at the carboxamide nitrogen for hydrogen bond formation, in a position analogous to benzimidazole. Dimeric derivatives are represented by the DB2Py(n) series containing n-alkyldicarboxylic acids as a linker. This series is represented by a set of compounds containing 1, 3, 4, 5, 7, 9, and 11 methylene units, which allowed for a more accurate assessment of the dependence of the inhibitory activity of compounds on spacer length. The DB2Py(n) series differs from the DB3(n) series by the presence, in addition to the bisbenzimidazole structure, of a pyrrolecarboxamide structure, which is a fragment of the AT-specific antibiotic netropsin.Using the real-time fluorescence analysis method, halfmaximal inhibitory concentration (IC50) values of the studied compounds (see the Table) were obtained in the reaction of BHQ1 cleavage from the 3′-end of the oligonucleotide by TDP1, which led to an increase in FAM fluorescence at the 5′-end of the chain (Zakharenko et al., 2015). It should also be noted that a single-stranded oligonucleotide was used as substrate to exclude the binding of dimeric bisbenzimidazoles as minor-groove ligands to the DNA substrate and direct their action toward the enzymatic target.

The target in assay [3] is T2, poly(ADP-ribose) polymerase 1 (PARP1) (Homo sapiens, UniProt P09874).
T2 construct: made in house; host or cells: insect cells (baculovirus expression system)
The assay is described as follows: PARP1 auto-poly(ADP-ribosyl)ation with [32P]-NAD+. The format is biochemical. The note with it: compound 500 μM, PARP1 200 nM, 0.3 mM [32P]-NAD+, 2 min, 37 °C; mean ± SD; read-out: PARP1 % of residual activity (500 μM).
Text: as §1, §2, §3

The target in assay [4] is T3, tyrosyl-DNA phosphodiesterase 2 (TDP2) (Homo sapiens, UniProt O95551).
T3 construct: made in house; host or cells: E. coli
T3 sequence (O95551 1-362): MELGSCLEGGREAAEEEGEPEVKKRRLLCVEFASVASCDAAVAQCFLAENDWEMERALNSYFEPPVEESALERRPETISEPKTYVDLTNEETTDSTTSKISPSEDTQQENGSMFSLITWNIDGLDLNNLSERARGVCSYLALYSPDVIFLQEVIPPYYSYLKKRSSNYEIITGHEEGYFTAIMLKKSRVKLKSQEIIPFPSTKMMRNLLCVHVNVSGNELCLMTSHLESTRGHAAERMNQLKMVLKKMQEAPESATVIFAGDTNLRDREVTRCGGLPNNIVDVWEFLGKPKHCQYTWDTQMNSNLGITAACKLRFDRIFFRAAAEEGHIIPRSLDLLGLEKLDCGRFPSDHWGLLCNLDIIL
The assay is described as follows: TDP2 activity, removal of 5′-tyrosine from oligonucleotide substrate, denaturing PAGE. Conditions: inhibitor 500 μM, TDP2 200 nM, substrate 100 nM, 10 min, 37 °C; mean ± SD; read-out: TDP2 % of residual activity (500 μM). The format is biochemical.
Text: as §1
Determination of TDP2 activity. For determination of TDP2 enzyme activity, an oligonucleotide 5′-tyrosine-AAC GTC AGG GTC TTC C-FAM-3′ containing a 6-FAM label at the 3′-end and an L-tyrosine residue attached via the phenolic OH group to the 5′-terminal phosphate was used as substrate, synthesized at the Russian-French-Japanese Laboratory of Bionanotechnology of Novosibirsk State University as described in (Dyrkheeva et al., 2021). The substrate at a concentration of 100 nM was incubated with TDP2 at a concentration of 200 nM in the absence or presence of inhibitor (500 μM) for 10 min at 37 °C in buffer containing 50 mM Tris-HCl, pH 8.0, 50 mM NaCl, 7 mM β-mercaptoethanol (Dyrkheeva et al., 2021). The reaction was stopped by addition of PAGE loading buffer (TBE, 10 % formamide, 7 M urea, 20 mM EDTA, 0.1 % xylene cyanol, and 0.1 % bromophenol blue). The samples were then heated at 90 °C for 5 min. The enzymatic reaction products were separated by electrophoresis in 20 % denaturing PAGE with 7 M urea at an acrylamide to bisacrylamide ratio of 19:1. A high-resolution Typhoon FLA 9500 laser scanner (GE Healthcare, Chicago, Illinois, USA) was used for gel scanning and visualization, and the data were analyzed using QuantityOne 4.6.7 software (Bio- Rad Laboratories, Inc., Hercules, California, USA). At least three independent experiments were performed, and statistical processing was carried out using OriginPro 8.6.0 (OriginLab, Northampton, Massachusetts, USA).
To study the effect of the studied compounds on TDP2 activity, we tested the ability of this enzyme to remove the tyrosine residue from the 5′-end of the oligonucleotide substrate in the absence and presence of inhibitors, as described in (Dyrkheeva et al., 2021).

T1 sequence (Q9NUW8 whole entry): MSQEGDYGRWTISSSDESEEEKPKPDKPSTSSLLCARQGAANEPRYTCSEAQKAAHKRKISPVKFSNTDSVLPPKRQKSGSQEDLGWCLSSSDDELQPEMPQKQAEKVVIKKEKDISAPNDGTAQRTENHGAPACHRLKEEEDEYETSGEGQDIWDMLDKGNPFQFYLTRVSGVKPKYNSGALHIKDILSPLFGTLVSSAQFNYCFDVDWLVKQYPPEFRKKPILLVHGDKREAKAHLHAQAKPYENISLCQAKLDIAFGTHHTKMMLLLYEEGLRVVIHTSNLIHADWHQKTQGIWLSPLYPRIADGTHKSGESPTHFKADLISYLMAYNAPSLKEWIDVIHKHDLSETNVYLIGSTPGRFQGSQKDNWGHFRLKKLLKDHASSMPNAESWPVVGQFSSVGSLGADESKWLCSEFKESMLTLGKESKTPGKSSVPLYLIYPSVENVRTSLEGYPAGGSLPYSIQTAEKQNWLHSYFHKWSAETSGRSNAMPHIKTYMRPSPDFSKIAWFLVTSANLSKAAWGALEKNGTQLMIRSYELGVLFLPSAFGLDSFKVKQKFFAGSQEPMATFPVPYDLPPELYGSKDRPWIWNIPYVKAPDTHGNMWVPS
T2 sequence (P09874 whole entry): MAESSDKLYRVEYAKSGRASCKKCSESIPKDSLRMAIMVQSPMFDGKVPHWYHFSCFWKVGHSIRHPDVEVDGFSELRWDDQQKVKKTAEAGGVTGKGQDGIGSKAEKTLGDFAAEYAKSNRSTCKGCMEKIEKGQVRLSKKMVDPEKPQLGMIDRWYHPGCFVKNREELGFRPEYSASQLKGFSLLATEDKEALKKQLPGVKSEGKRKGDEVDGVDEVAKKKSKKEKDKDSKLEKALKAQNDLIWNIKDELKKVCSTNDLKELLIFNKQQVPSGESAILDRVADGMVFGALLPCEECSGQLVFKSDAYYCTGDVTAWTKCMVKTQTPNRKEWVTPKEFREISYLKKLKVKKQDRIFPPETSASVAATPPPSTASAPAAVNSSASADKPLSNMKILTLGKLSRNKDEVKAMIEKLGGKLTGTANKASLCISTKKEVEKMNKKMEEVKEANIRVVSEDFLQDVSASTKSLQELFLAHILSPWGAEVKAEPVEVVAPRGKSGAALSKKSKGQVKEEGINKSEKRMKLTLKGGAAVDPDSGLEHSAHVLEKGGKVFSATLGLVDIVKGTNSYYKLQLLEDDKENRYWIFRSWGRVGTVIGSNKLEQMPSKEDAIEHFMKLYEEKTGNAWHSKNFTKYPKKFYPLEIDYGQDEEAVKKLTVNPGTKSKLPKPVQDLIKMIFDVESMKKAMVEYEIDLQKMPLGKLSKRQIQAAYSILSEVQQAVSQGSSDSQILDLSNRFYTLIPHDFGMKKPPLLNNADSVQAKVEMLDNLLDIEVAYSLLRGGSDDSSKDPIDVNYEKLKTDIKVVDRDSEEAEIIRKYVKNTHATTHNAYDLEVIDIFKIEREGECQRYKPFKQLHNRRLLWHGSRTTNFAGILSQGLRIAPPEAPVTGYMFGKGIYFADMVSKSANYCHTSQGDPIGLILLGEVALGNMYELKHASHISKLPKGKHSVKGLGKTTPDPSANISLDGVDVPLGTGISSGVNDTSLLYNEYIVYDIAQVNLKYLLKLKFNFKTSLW

Broadly, the IC50 is the concentration at which inhibition is half-maximal. Regarding `CN1CCN(c2ccc3nc(-c4ccc5nc(CNC(=O)CN6CCN(CC(=O)NCc7nc8ccc(-c9nc%10ccc(N%11CCN(C)CC%11)cc%10[nH]9)cc8[nH]7)CC6)[nH]c5c4)[nH]c3c2)CC1` [DB2P(1)], the “PARP2 % of residual activity (500 μM)” value in assay [1] is on record as ~ 100%. Moreover, in assay [2], the IC50 stood at 6000 ± 4000 nM. Further, the remaining activity at 500 µM in assay [3] was determined as 57 ± 16%; in assay [4], 66 ± 7%.
The matching figures for `CN1CCN(c2ccc3nc(-c4ccc5nc(CNC(=O)CCN6CCN(CCC(=O)NCc7nc8ccc(-c9nc%10ccc(N%11CCN(C)CC%11)cc%10[nH]9)cc8[nH]7)CC6)[nH]c5c4)[nH]c3c2)CC1` [DB2P(2)]: 80 ± 20%, 9000 ± 3000 nM, 51 ± 15% and 44 ± 11%.
Regarding `CN1CCN(c2ccc3nc(-c4ccc5nc(CNC(=O)CCCN6CCN(CCCC(=O)NCc7nc8ccc(-c9nc%10ccc(N%11CCN(C)CC%11)cc%10[nH]9)cc8[nH]7)CC6)[nH]c5c4)[nH]c3c2)CC1` [DB2P(3)], the “PARP2 % of residual activity (500 μM)” value in assay [1] is 64 ± 16%. The IC50 in assay [2] was found to be 4100 ± 600 nM. Also, the remaining activity at 500 µM in assay [3] was determined as 37 ± 10%; in assay [4], 36 ± 7%.
The matching figures for `CN1CCN(c2ccc3nc(-c4ccc5nc(CNC(=O)CCCCN6CCN(CCCCC(=O)NCc7nc8ccc(-c9nc%10ccc(N%11CCN(C)CC%11)cc%10[nH]9)cc8[nH]7)CC6)[nH]c5c4)[nH]c3c2)CC1` [DB2P(4)]: 85 ± 13%, 2300 ± 300 nM, 33 ± 13% and 44 ± 11%.
Consider `CCCn1cc(NC(=O)CC(=O)Nc2cc(-c3nc4ccc(-c5nc6ccc(N7CCN(C)CC7)cc6[nH]5)cc4[nH]3)n(CCC)c2)cc1-c1nc2ccc(-c3nc4ccc(N5CCN(C)CC5)cc4[nH]3)cc2[nH]1` [DB2Py(1)], for which, in assay [1], the “PARP2 % of residual activity (500 μM)” value is ~ 100%. Besides, the IC50 in assay [2] was 250 ± 50 nM. For the same compound, the remaining activity at 500 µM in assay [3] was around 100%; in assay [4] it was 55 ± 3%.
On the same counts, the results for `CCCn1cc(NC(=O)CCCC(=O)Nc2cc(-c3nc4ccc(-c5nc6ccc(N7CCN(C)CC7)cc6[nH]5)cc4[nH]3)n(CCC)c2)cc1-c1nc2ccc(-c3nc4ccc(N5CCN(C)CC5)cc4[nH]3)cc2[nH]1` [DB2Py(3)] are ~ 100%, 410 ± 90 nM, around 100% and 70 ± 11%.
In the case of `CCCn1cc(NC(=O)CCCCC(=O)Nc2cc(-c3nc4ccc(-c5nc6ccc(N7CCN(C)CC7)cc6[nH]5)cc4[nH]3)n(CCC)c2)cc1-c1nc2ccc(-c3nc4ccc(N5CCN(C)CC5)cc4[nH]3)cc2[nH]1` [DB2Py(4)], in assay [1], the “PARP2 % of residual activity (500 μM)” value is given as ~ 100%. Further, the IC50 in assay [2] is 400 ± 150 nM. The remaining activity at 500 µM in assay [3] and in assay [4] was around 100% throughout.
Regarding `CCCn1cc(NC(=O)CCCCCC(=O)Nc2cc(-c3nc4ccc(-c5nc6ccc(N7CCN(C)CC7)cc6[nH]5)cc4[nH]3)n(CCC)c2)cc1-c1nc2ccc(-c3nc4ccc(N5CCN(C)CC5)cc4[nH]3)cc2[nH]1` [DB2Py(5)], the “PARP2 % of residual activity (500 μM)” value in assay [1] is ~ 100%. For the same compound, the IC50 in assay [2] is 350 ± 130 nM. Moreover, the remaining activity at 500 µM in assay [3] and in assay [4] was around 100% throughout.
Regarding `CCCn1cc(NC(=O)CCCCCCCC(=O)Nc2cc(-c3nc4ccc(-c5nc6ccc(N7CCN(C)CC7)cc6[nH]5)cc4[nH]3)n(CCC)c2)cc1-c1nc2ccc(-c3nc4ccc(N5CCN(C)CC5)cc4[nH]3)cc2[nH]1` [DB2Py(7)], in assay [1], the “PARP2 % of residual activity (500 μM)” value is recorded as ~ 100%. Further, the IC50 in assay [2] amounted to 280 ± 10 nM. Further, the remaining activity at 500 µM in assay [3] and in assay [4] was around 100% in each case.
As for `CCCn1cc(NC(=O)CCCCCCCCCC(=O)Nc2cc(-c3nc4ccc(-c5nc6ccc(N7CCN(C)CC7)cc6[nH]5)cc4[nH]3)n(CCC)c2)cc1-c1nc2ccc(-c3nc4ccc(N5CCN(C)CC5)cc4[nH]3)cc2[nH]1` [DB2Py(9)], the “PARP2 % of residual activity (500 μM)” value in assay [1] is recorded as ~ 100%. Further, the IC50 in assay [2] was 300 ± 80 nM. The remaining activity at 500 µM in assay [3] and in assay [4] was around 100% each time.
Turning to `CCCn1cc(NC(=O)CCCCCCCCCCCC(=O)Nc2cc(-c3nc4ccc(-c5nc6ccc(N7CCN(C)CC7)cc6[nH]5)cc4[nH]3)n(CCC)c2)cc1-c1nc2ccc(-c3nc4ccc(N5CCN(C)CC5)cc4[nH]3)cc2[nH]1` [DB2Py(11)], in assay [1], the “PARP2 % of residual activity (500 μM)” value is reported as ~ 100%. Besides, the IC50 in assay [2] was found to be 900 ± 100 nM. Besides, the remaining activity at 500 µM in assay [3] and in assay [4] was around 100% each time.
